According to patent US20180110770A1, “FERROPTOSIS AND GLUTAMINOLYSIS INHIBITORS AND METHODS OF TREATMENT” (MEMORIAL SLOAN-KETTERING CANCER CENTER, priority 2015, published 2018):
Peptide text beside a SMILES is read from it. * marks the point of attachment. Cbz = O=C(OCc1ccccc1)*; CH2F = FC*

Key:
MEFs [1] = experiment: Serum-dependent necrosis (serum-induced cell death) upon amino acid or cystine starvation; type: cell-based, mouse; conditions: 12 hrs, NAC 0.2 mM, Trolox 0.2 mM; for inhibition of serum-dependent necrosis (cell viability / cell death): total amino acid starvation in the presence of FBS, GPNA 5 mM, 968 20 μM, AOA 0.5 mM, BPTES 10 μM, DFO 80 μM, CPX 10 μM, BIP 100 μM, cysteine/cystine 0.2 mM, U0126 and PD0325901 10 μM; for inhibition of serum-dependent cell death triggered by cystine starvation: cystine starvation in the presence of serum
Method: (§1) To induce cell death, 80%-confluent cells were washed with PBS twice, and then cultured in amino acid-free medium, with specific factors added as indicated in individual experiments. Cell death was analyzed by propidium iodide (PI) staining coupled with microscopy or flow cytometry. Alternatively, cell viability was determined using the CellTiter-Glo luminescent Cell Viability Assay (Promega). In assays using WT MEFs, viability was calculated by normalizing ATP levels to cells treated with amino acid-starvation in the presence of 10% (v/v) diFBS, while in assays using bax/bak-DKO MEFs, ATP levels were normalized to cells treated with amino acid and FBS double starvation.

MEFs [2] = experiment: Erastin-induced ferroptosis; type: cell-based, mouse; conditions: erastin 1 μM, 12 hrs, DFO 80 μM, CPX 10 μM, 968 20 μM, AOA 0.5 mM, U0126 and PD0325901 10 μM
TNF-α induced apoptosis = experiment: TNF-α induced apoptosis; type: cell-based; conditions: TNF-α 50 ng/ml + SMAC mimetic 0.5 μM; AOA 0.5 mM
[3] = 2,2-Diphenyl-1-picrylhydrazyl assay for antioxidant activity; conditions: compound 50 μM, DPPH 50 μM in methanol, 1 hr, room temperature, absorbance at 517 nm
Method: The experiment was performed as described previously (Blois, 1958; Dixon et al., 2012). 2,2-Diphenyl-1-picrylhydrazyl (DPPH) (Sigma Cat#D9132) was dissolved in methanol to a final concentration of 50 μM. The tested compounds were added to 1 ml of DPPH solution with a final concentration of 50 μM. Samples were mixed well and incubated at room temperature for 1 hr. The absorbance at 517 nm (indicating the concentration of non-reduced DPPH) was measured using methanol as control.

[4] = test system: hearts isolated from wild-type mice; experiment: Ischemia-reperfusion (I/R) analysis using isolated hearts (ex vivo heart model); type: in vivo; conditions: ex vivo mouse heart, DFO 80 μM; for left ventricular developed pressure (LVDP) recovery at the end of reperfusion / myocardial infarct size (TTC staining): 30 min global ischemia, 60 min reperfusion; for left ventricular developed pressure (LVDP) recovery at the end of reperfusion: 968 25 μM in perfusate, vehicle 43.20%±1.66%; for myocardial infarct size (TTC staining): vehicle 30.82%±0.57%
Method: Male C57BL/6J mice weighing 25-30 g at age 12-14 weeks were used in all experiments and maintained in a temperature-controlled room with alternating 12:12-h light-dark cycles. Experiments were performed using an isovolumic isolated heart preparation as published and modified for the use in mice hearts ([…] et al., 2009; Hwang et al., 2004). Hearts from 12-14 weeks aged wild-type mice were isolated, and retrograde perfused at 37° C. in a non-recirculating mode through the aorta at a rate of 2.5 ml/min. Hearts were perfused with modified Krebs-Henseleit (KH) buffer (118 mM NaCl, 4.7 mM KCl, 2.5 mM CaCl2, 1.2 mM MgCl2, 25 mM NaHCO3, 5 mM glucose, 0.4 mM palmitate, 0.2 mM glutamine, 10 μg/ml human recombinant transferrin, 0.4 mM BSA, and 70 mU/1 insulin). Left ventricular developed pressure (LVDP) was measured using a latex balloon in the left ventricle. LVDP and coronary perfusion pressure were monitored continuously on a four-channel Gould recorder. Hearts were perfused either with KH buffer containing vehicle (DMSO) or the Compounds throughout the FR protocol. After an equilibration period of 30 min, global ischemia was performed for 30 min followed by 60 minutes of reperfusion. Cardiac injury due to I/R stress was assessed by measuring LDH release in the perfusates that were collected during 60 min of reperfusion. […] After 60 min of reperfusion, the heart is perfused with Evans blue in-situ and then removed. Hearts were sliced into cross-sections at approximately 1-mm intervals. The sections were embedded in the TTC solution at 37° C. for 10 min, and area of infarct as a percent of the whole heart was quantified as described. Functional recovery of LVDP was expressed by comparing to the initial LVDP before ischemia. All animal experiments were approved by the Institutional Animal Care and Use Committees of New York University School of Medicine and conformed to the guidelines outlined in the National Institutes of Health Guide for Care and Use of Laboratory Animals (NIH Pub. No. 85-23, 1996).

MEK1/2 = conditions: MEFs, PD0325901 10 μM, U0126 10 μM, Western blotting
MEFs [5] = experiment: Death-inducing activity of serum small molecules under amino acid starvation with diFBS; type: cell-based, mouse; conditions: 12 hrs, α-KG 4 mM also in the presence of AOA 0.5 mM, glucose with diFBS or transferrin
Method: as §1

bax/bak-DKO MEFs = experiment: Death-inducing activity of transferrin and L-Gln under amino acid starvation; type: cell-based, mouse; conditions: 12 hrs
Method: as §1

caspase-3 activation = experiment: Caspase-3 activation induced by UV light (Western blot); type: cell-based

Q: With `NOCC(=O)O` [AOA, amino-oxyacetate] as the molecule, how does the “inhibition of serum-dependent necrosis (cell viability / cell death)” value (“inhibition … (cell viability / cell death)” below) (MEFs [1]) read?
A: Its value is “could inhibit”.

Q: What about the “inhibition of erastin-induced ferroptosis (PI staining, flow cytometry)” value (MEFs [2]) of the same molecule?
A: The value was “can also inhibit”.

Q: And the “inhibition of TNF-α induced apoptosis” value (TNF-α induced apoptosis)?
A: Its value is “cannot inhibit”.

Q: With `O=C(Cc1ccccc1)Nc1nnc(CCSCCc2nnc(NC(=O)Cc3ccccc3)s2)s1` [BETPS, Bis-2-(5-phenylacetamido-1,3 ,4-thiadiazol-2-yl)ethyl sulfide] as the molecule, how does the “inhibition … (cell viability / cell death)” value (MEFs [1]) read?
A: The value was “failed to block”.

Q: For `c1ccc(-c2ccccn2)nc1` [BIP, 2,2-bipyridyl], which “inhibition … (cell viability / cell death)” value (MEFs [1]) is on record?
A: The value was “blocked”.

Q: For `Cc1cc(C2CCCCC2)n(O)c(=O)c1` [CPX, ciclopirox olamine], which “inhibition … (cell viability / cell death)” value (MEFs [1]) is on record?
A: Its value is “blocked”.

Q: What about the “inhibition of erastin-induced ferroptosis (PI staining, flow cytometry)” value (MEFs [2]) of the same molecule?
A: Its value is “inhibited”.

Q: What does the source list for `CN(C)c1ccc(C2Nc3ccc4ccccc4c3C3=C2C(=O)CC(C)(C)C3)cc1Br` (stereo not drawn) [Compound 968]?
A: inhibition of serum-dependent necrosis (cell viability / cell death) (MEFs [1]): completely inhibited; inhibition of erastin-induced ferroptosis (PI staining, flow cytometry) (MEFs [2]): can also inhibit; antioxidant activity (reduction of DPPH) [3]: showed no anti-oxidant function; left ventricular developed pressure (LVDP) recovery at the end of reperfusion [4]: 75.25%±5.75%; myocardial infarct size (TTC staining) ([4]; 968 25 μM): 17.36%±0.47%; release of lactate dehydrogenase (LDH) during reperfusion ([4]; perfusates collected during 60 min reperfusion, 968 25 μM): significantly inhibited

Q: What does the source list for `N#CC(=C(/N)Sc1ccccc1N)/C(C#N)=C(\N)Sc1ccccc1N` [Compound U0126]?
A: inhibition of serum-dependent necrosis (cell viability / cell death) (MEFs [1]): able to block; inhibition of erastin-induced ferroptosis (PI staining, flow cytometry) (MEFs [2]): able to block; antioxidant activity (reduction of DPPH) [3]: anti-oxidative property; inhibition of MEK1/2 kinase activity (MEK1/2): confirmed the inhibition of MEK1/2 kinase activity

Q: What does the source list for `CC(=O)N(O)CCCCCNC(=O)CCC(=O)N(O)CCCCCNC(=O)CCC(=O)N(O)CCCCCN` [DFO, Deferoxamine]?
A: left ventricular developed pressure (LVDP) recovery at the end of reperfusion [4]: 64.75%±4.09%; myocardial infarct size (TTC staining) ([4]; 968 25 μM): 22.60%±0.97%

Q: What does the source list for `CCOC(=O)c1ccc(NC2CCCCC2)c(N)c1` [Fer-1]?
A: inhibition of serum-dependent cell death triggered by cystine starvation (MEFs [1]): can block; inhibition of serum-dependent necrosis (cell viability / cell death) (MEFs [1]): can block

Q: Which “inhibition … (cell viability / cell death)” value (MEFs [1]) does the source give for `N[C@@H](CCC(=O)Nc1ccc([N+](=O)[O-])cc1)C(=O)O` [GPNA, L-g-glutamyl-p-nitroanilide] here?
A: Its value is “markedly blocked”.

Q: Which results are given for `N[C@@H](CCC(=O)N[C@@H](CS)C(=O)NCC(=O)O)C(=O)O` [GSH, glutathione]?
A: inhibition of serum-dependent cell death triggered by cystine starvation (MEFs [1]): effectively blocked; inhibition of serum-dependent necrosis (cell viability / cell death) (MEFs [1]): effectively blocked

Q: Which results are given for `NC(=O)CC[C@H](N)C(=O)O` [L-Gln, L-glutamine]?
A: induction of cell death in the presence of diFBS (MEFs [5]): induced potent cell death; induction of cell death by L-Gln alone (bax/bak-DKO MEFs; L-Gln 0.1 mM alone): induced modest but measurable cell death

Q: For `CC(=O)N[C@@H](CS)C(=O)O` [NAC, N-acetylcysteine], which “inhibition of serum-dependent cell death triggered by cystine starvation” value (MEFs [1]) is on record?
A: The value was “effectively blocked”.

Q: What about the “inhibition … (cell viability / cell death)” value (MEFs [1]) of the same molecule?
A: Its value is “effectively blocked”.

Q: With `O=C(NOC[C@H](O)CO)c1ccc(F)c(F)c1Nc1ccc(I)cc1F` [PD0325901] as the molecule, how does the “antioxidant activity (reduction of DPPH)” value [3] read?
A: The value was “showed no anti-oxidant function”.

Q: What does the source list for `Cc1c(C)c2c(c(C)c1O)CCC(C)(C(=O)O)O2` (stereo not drawn) [Trolox, 6-hydroxy-2,5,7,8-tetramethylchroman-2-carboxylic acid]?
A: inhibition of serum-dependent cell death triggered by cystine starvation (MEFs [1]): effectively blocked; inhibition of serum-dependent necrosis (cell viability / cell death) (MEFs [1]): effectively blocked

Q: For `N[C@@H](CS)C(=O)O` [cysteine], which “inhibition … (cell viability / cell death)” value (MEFs [1]) is on record?
A: Its value is “rescued cells from necrosis”.

Q: Which “inhibition … (cell viability / cell death)” value (MEFs [1]) does the source give for `N[C@@H](CSSC[C@H](N)C(=O)O)C(=O)O` [cystine] here?
A: Its value is “rescued cells from necrosis”.

Q: For `COC(=O)C[C@H](NC(=O)[C@H](C)NC(=O)[C@@H](NC(=O)OCc1ccccc1)C(C)C)C(=O)CF` [zVAD-FMK] (Cbz-Val-Ala-Asp(OMe)-CH2F), which “inhibition … (cell viability / cell death)” value (MEFs [1]) is on record?
A: The value was “failed to block”.

Q: What about the “block of caspase-3 activation induced by UV light” value (caspase-3 activation) of the same molecule?
A: Its value is “can block”.

Q: With `COC(=O)CCC(=O)C(=O)OC` [α-KG, Dimethyl-α-Ketoglutarate] as the molecule, how does the “induction of cell death in the presence of diFBS” value (MEFs [5]) read?
A: The value was “can induce potent cell death”.

Q: Which “induction of cell death in the presence of diFBS” value (MEFs [5]) does the source give for L-alanine-L-glutamine [A-Q] here?
A: Its value is “able to induce cell death”.

Q: Which “induction of cell death in the presence of smFBS” value (bax/bak-DKO MEFs; with smFBS) does the source give for “recombinant human holo-transferrin: recombinant human holo-transferrin expressed in rice” here?
A: The value was “could induce cell death in a dose-dependent manner”.

Q: For “transferrin: iron carrier protein in serum”, which “cell death on addition of transferrin to L-Gln” value (bax/bak-DKO MEFs; with L-Gln 0.1 mM) is on record?
A: Its value is “further enhanced cell death”.
